Laboratory results published in patent US10300065B2, “Method of treating or prevention of atherothrombotic events in patients with history of myocardial infarction” (ASTRAZENECA AB, priority 2015, dated 2019).

What was measured:
[1] = test system: patients with a history of myocardial infarction; test: PEGASUS-TIMI 54 trial, efficacy endpoints (intention-to-treat / full analysis set); type: in vivo, human
Text: The PEGASUS-TIMI 54 trial (also referred to as the PEGASUS trial or PEGASUS study herein) was a randomized, double-blind, placebo-controlled multinational clinical trial that enrolled over 21,000 patients at 1,161 sites in 31 countries. The protocol was approved by the relevant ethics committees at all participating sites. In the U.S., the PEGASUS trial was assigned a ClinicalTrials.gov number of NCT01225562.
Patients could be randomized regardless of their prior adenosine diphosphate (ADP) receptor blocker therapy or a lapse in therapy.
Randomization was performed using a central computerized telephone or web based system, and allocation was double-blind.
All patients enrolled in the PEGASUS trial were instructed to take open label aspirin at a dose of 75 to 150 mg daily.
A total of 1360 primary endpoint events would be required to provide approximately 90% power to detect a 20% relative risk reduction with the 90 mg twice daily dose and approximately 83% power to detect a 19% relative risk reduction with the 60 mg twice daily dose when each dose was compared individually with placebo. The primary efficacy analysis was conducted on an intention-to-treat basis, with each of the two doses individually compared to placebo, as a time to event analysis from randomization to the first occurrence of any element of the primary composite endpoint: cardiovascular death, myocardial infarction, or stroke. […] An exploratory analysis of both doses combined compared with placebo was prespecified.

platelets [2] = test: VerifyNow P2Y12 assay (platelet reactivity, PRU), platelet function substudy; type: cell-based, human; details: for VerifyNow % inhibition Post dose / VerifyNow PRU Post dose: 2 h post dose; for VerifyNow % inhibition Post dose / VerifyNow PRU Post dose / VerifyNow % inhibition Pre dose / VerifyNow PRU Pre dose: mean (SD)
Protocol: The pharmacokinetics (PK) and pharmacodynamics of the 60 mg bid dose had not previously been studied. […] 180 patients who had received >4 weeks of study medication had blood sampling in the morning pre-maintenance dose and again 2 h post-dose. All patients were receiving aspirin. […] Well-known VerifyNow® P2Y12 assay and light transmittance aggregometry (LTA; ADP 20 uM) were performed. Groups were compared using Kruskal-Wallis test with significance attached to P<0.01 to allow for multiple group comparisons.

platelets [3] = details: either ticagrelor group
[4] = 90 mg bid (N = 7050), at 3 years
[5] = 90 mg bid vs. placebo (N = 6988)

CCCSc1nc(N[C@@H]2C[C@H]2c2ccc(F)c(F)c2)c2nnn([C@@H]3C[C@H](OCCO)[C@@H](O)[C@H]3O)c2n1 [Ticagrelor, (1S,2S,3R,5S)-3-[7-{[(1R,2S)-2-(3,4-difluorophenyl)cyclopropyl]amino}-5-(propylthio)-3H-[1,2,3]-triazolo[4,5-d]pyrimidin-3-yl]-5-(2-hydroxyethoxy)cyclopentane-1,2-diol]
Stent thrombosis: KM % ([1]; 90 mg bd, at 36 months): 0.6% | Composite of CV Death/MI/Stroke, landmark: KM % at 24 months ([1]; 90 mg bd, cumulative from day 361 to day 720): 2.4% | Composite of CV Death/MI/Stroke, landmark: KM % at 36 months ([1]; 90 mg bd, cumulative from day 361 to day 1080): 5.2% | MI: ARR (%) ([1]; 90 mg bid): 0.85% | MI: NNT ([1]; 90 mg bid): 118 | Stroke: ARR (%) ([1]; 90 mg bid): 0.33% | Stroke: NNT ([1]; 90 mg bid): 303 | All Stroke: 3-year Kaplan-Meier estimate ([1]; 90 mg bid (N = 7050)): (1.61) % | All Stroke: n ([1]; 90 mg bid (N = 7050)): 100 | Cardiovascular Death or Myocardial infarction: 3-year Kaplan-Meier estimate ([1]; 90 mg bid (N = 7050)): (6.79) % | Cardiovascular Death or Myocardial infarction: n ([1]; 90 mg bid (N = 7050)): 424 | Cardiovascular Death, Myocardial infarction, or Stroke: 3-year Kaplan-Meier estimate ([1]; 90 mg bid (N = 7050)): (7.85) % | Cardiovascular Death, Myocardial infarction, or Stroke: n ([1]; 90 mg bid (N = 7050)): 493 | Cardiovascular Death: 3-year Kaplan-Meier estimate ([1]; 90 mg bid (N = 7050)): (2.94) % | Cardiovascular Death: n ([1]; 90 mg bid (N = 7050)): 182 | Coronary Heart Disease Death or Myocardial infarction: 3-year Kaplan-Meier estimate ([1]; 90 mg bid (N = 7050)): (5.59) % | Coronary Heart Disease Death or Myocardial infarction: n ([1]; 90 mg bid (N = 7050)): 350 | Coronary Heart Disease Death, Myocardial infarction, or Stroke: 3-year Kaplan-Meier estimate ([1]; 90 mg bid (N = 7050)): (6.99) % | Coronary Heart Disease Death, Myocardial infarction, or Stroke: n ([1]; 90 mg bid (N = 7050)): 438 | Coronary Heart Disease Death: 3-year Kaplan-Meier estimate ([1]; 90 mg bid (N = 7050)): (1.53) % | Coronary Heart Disease Death: n ([1]; 90 mg bid (N = 7050)): 97 | Death from any cause: 3-year Kaplan-Meier estimate ([1]; 90 mg bid (N = 7050)): (5.15) % | Death from any cause: n ([1]; 90 mg bid (N = 7050)): 326 | Hospitalization for Unstable Angina: n ([1]; 90 mg bid (N = 7050)): 33 | Ischemic Stroke: 3-year Kaplan-Meier estimate ([1]; 90 mg bid (N = 7050)): (1.41) % | Ischemic Stroke: n ([1]; 90 mg bid (N = 7050)): 88 | Myocardial infarction: 3-year Kaplan-Meier estimate ([1]; 90 mg bid (N = 7050)): (4.40) % | Myocardial infarction: n ([1]; 90 mg bid (N = 7050)): 275 | Transient Ischemic Attack: n ([1]; 90 mg bid (N = 7050)): 17 | Urgent Coronary Revascularization for Unstable Angina: n ([1]; 90 mg bid (N = 7050)): 74 | Hospitalization for Unstable Angina: (%) [1, 4]: (0.50) % | Transient Ischemic Attack: (%) [1, 4]: (0.27) % | Urgent Coronary Revascularization for Unstable Angina: (%) [1, 4]: (1.16) % | Cardiovascular Death, Myocardial infarction, or Stroke: 3-year Kaplan-Meier estimate ([1]; 90 mg bid (N = 7050), listed as ticagrelor): 7.85% | All Stroke: HR ([1]; 90 mg bid vs Placebo): 0.82 | Cardiovascular Death or Myocardial infarction: HR ([1]; 90 mg bid vs Placebo): 0.85 | Cardiovascular Death, Myocardial infarction, or Stroke: HR ([1]; 90 mg bid vs Placebo): 0.85 | Cardiovascular Death: HR ([1]; 90 mg bid vs Placebo): 0.87 | Coronary Heart Disease Death or Myocardial infarction: HR ([1]; 90 mg bid vs Placebo): 0.81 | Coronary Heart Disease Death, Myocardial infarction, or Stroke: HR ([1]; 90 mg bid vs Placebo): 0.82 | Coronary Heart Disease Death: HR ([1]; 90 mg bid vs Placebo): 0.73 | Coronary stent thrombosis: RRR ([1]; 90 mg bid vs Placebo): 36% | Death from any cause: HR ([1]; 90 mg bid vs Placebo): 1.00 | Hospitalization for Unstable Angina: HR ([1]; 90 mg bid vs Placebo): 0.89 | Ischemic Stroke: HR ([1]; 90 mg bid vs Placebo): 0.85 | Myocardial infarction: HR ([1]; 90 mg bid vs Placebo): 0.81 | Transient Ischemic Attack: HR ([1]; 90 mg bid vs Placebo): 1.00 | Urgent Coronary Revascularization for Unstable Angina: HR ([1]; 90 mg bid vs Placebo): 0.97 | coronary heart disease death, myocardial infarction, or stroke: RRR ([1]; 90 mg bid vs Placebo): 18% | Irreversible harm (CV death, MI, stroke, ICH, or fatal bleeding): HR [1, 5]: 0.88 | Irreversible harm (CV death, MI, stroke, ICH, or fatal bleeding): RRR (%) [1, 5]: 12% | Net clinical benefit (CV death, MI, stroke, or TIMI major bleeding): HR [1, 5]: 1.00 | Net clinical benefit (CV death, MI, stroke, or TIMI major bleeding): RRR (%) [1, 5]: 0% | ischemic events prevented if 10,000 patients were started on treatment versus placebo ([1]; 90 mg bid, intention-to-treat data): 40 | High platelet reactivity assessed by VerifyNow (PRU >208) (platelets [2]; 60 mg, post dose): absent | High platelet reactivity assessed by VerifyNow (PRU >208), patients (platelets [2]; 60 mg, pre-dose): 3.5% | VerifyNow % inhibition Post dose (platelets [2]; ticagrelor 60 mg bid): 90 (13) % | VerifyNow PRU Post dose (platelets [2]; ticagrelor 60 mg bid): 29 (39) PRU | VerifyNow % inhibition Pre dose (platelets [2]; ticagrelor 60 mg bid): 78 (20) % | VerifyNow PRU Pre dose (platelets [2]; ticagrelor 60 mg bid): 59 (63) PRU | VerifyNow % inhibition Post dose (platelets [2]; ticagrelor 90 mg bid): 92 (8) % | VerifyNow PRU Post dose (platelets [2]; ticagrelor 90 mg bid): 20 (19) PRU | VerifyNow % inhibition Pre dose (platelets [2]; ticagrelor 90 mg bid): 83 (14) % | VerifyNow PRU Pre dose (platelets [2]; ticagrelor 90 mg bid): 47 (43) PRU | VerifyNow Aspirin assay results vs placebo group (platelets [3]): no differences
